The target of one assay is recombinant E. coli FtsZ (Escherichia coli (strain K12), UniProt P0A9A6). Briefly: FtsZ GTPase assay (malachite green). The following applies: read-out: FtsZ in vitro IC50 μM Ec-FtsZ.
The target in the next assay is Sa-FtsZ (Staphylococcus aureus, UniProt P0A031). In kind it is biochemical. The note with it: GTPase assay; read-out: FtsZ in vitro IC50 μM Sa-FtsZ.
Assay [1] relates to Bacillus subtilis (ATCC 49343). In words: Microbroth dilution assay. It is filed as cell-based. The note with it: ATCC49343, read-out: MIC50 values in μM BS. The procedure: (§1) Compounds 1-8 were tested for antimicrobial activity against Staphylococcus aureus (SA, ATCC 25923), methicillin-resistant S. aureus (MRSA, ATCC BAA-41), multidrug-resistant S. aureus (MDRSA, ATCC BAA-44), Enterococcus faecium (EF, ATCC 49032), vancomycin-resistant E. Faecium (VRE, ATCC 700221), and Bacillus subtilis (ATCC 49343) using a modified disk diffusion assay and microbroth liquid dilution assays. For disk diffusion assays, agar plates seeded with suspensions of bacteria were prepared by adding 500 μL of a 24 h culture of bacteria to 100 mL of autoclaved Mueller Hinton II agar and cooled to 55° C. Seeded liquid agar (10 mL) was transferred immediately to square Petri dishes and allowed to cool for 1 h. Control drugs used for each microorganism included kanamycin (50 μg) for S. aureus, and nitrofurantoin (25 μg) for MRSA. Following incubation at 37° C. for 18 h, zones of inhibition were measured. MICso values for compounds 1 and 4-8 were determined using a microbroth dilution assay outlined in the Clinical and Laboratory Standards Institute methods for susceptibility tests for bacteria that grow aerobically. Briefly, single bacterial colonies were used to inoculate 4 mL of Trypticase Soy broth (BD) for overnight growth and inoculum for each were diluted to 5×10^5 CFU/mL using the 0.5 McFarland standard. In a 96 well plate (Costar, round bottom), control antibiotics (oxacillin for SA and MRSA, vancomycin for EF and VRE, chloramphenicol for B. subtilis) or natural product inhibitors were added to Mueller Hinton II broth (for S. aureus, MRSA, and B. subtilis) or 10% brain heart infusion broth (for E. faecium and VRE) in the first column of the well plates, and serially diluted across the plate, reserving wells for a positive growth control (no treatment). 10 μL of diluted bacteria were added to all wells with the exception of those kept for broth blanks (MHII or brain heart infusion broth only). Plates were incubated at 37° C. overnight and read at absorbance 600 nm on a Molecular Devices plate reader. Growth curves were plotted and ICso values obtained using Kalidagraph software.
(§2) Compounds J23 and J24 were tested for antimicrobial activity against Bacillus subtilis (BS, ATCC 49343), Staphylococcus aureus (SA, ATCC 25923), methicillin-resistant S. aureus (MRSA, ATCC BAA-41), multidrug-resistant S. aureus (MDRSA, ATCC BAA-44), Escherichia coli (EC, ATCC 8739), envelope-deficient E. coli (envA-EC; permeable (envA-) BL21(DE3)pLysS E. coli [constructed using standard P1 transduction methodology, utilizing a Tn10transposon linked to the envA1 gene]; Wang et al., J. Biol. Chem. 2003, 278(45):44424-44428), a clinical isolate of S. aureus (UAMS-1; clinical osteomyelitis isolate; Olson et al., PLoS Pathogens 2011, 7(2):e1001287, www.plospathogens.org), and a clinical isolate of MRSA (USA300; the strain USA300-0114 is the predominant cause of U.S. community-associated methicillin resistant S. aureus infections). MIC50 values were determined using a microbroth dilution assay as described in Example 2. E. coli was grown in Mueller Hinton II broth.
(Dilution methods test growth across graded concentrations, often in twofold steps.)

In assay [2] the test system is envelope-deficient E. coli (envA-EC). Briefly: Microbroth dilution assay. It is filed as cell-based. The following applies: Escherichia coli, read-out: MIC50 values in μM envA-EC. The procedure: as §1, §2
Assay [3] has as its system Staphylococcus aureus (SA, ATCC 25923). Briefly: Microbroth dilution assay. In kind it is cell-based. The note with it: ATCC25923, microbroth dilution. The procedure: as §1, §2
Assay [4] concerns Escherichia coli (EC, ATCC 8739). In words: Microbroth dilution assay. The note with it: ATCC8739. In kind it is cell-based. The procedure: as §1, §2
The subject of assay [5] is clinical isolate of MRSA (USA300). In words: Microbroth dilution assay. It is filed as cell-based. The note with it: Staphylococcus aureus. The procedure: as §1, §2
The test system of assay [6] is multidrug-resistant S. aureus (MDRSA, ATCC BAA-44). Briefly: Microbroth dilution assay. It is filed as cell-based. The following applies: Staphylococcus aureus, ATCCBAA44, read-out: MIC50 values in μM MDRSA. The procedure:
as §1, §2

Assay [7] relates to methicillin-resistant S. aureus (MRSA, ATCC BAA-41). In words: Microbroth dilution assay. It is filed as cell-based. The following applies: Staphylococcus aureus. The procedure:
as §1, §2

Assay [8] deals with clinical isolate of S. aureus (UAMS-1). Briefly: Microbroth dilution assay. In kind it is cell-based. The following applies: Staphylococcus aureus. The procedure:
as §1, §2

Our source for the IC50 and MIC50 values is patent publication US9169182B2, “Chrysophaentin analogs that inhibit FtsZ protein” (priority 2011, dated 2015).

In brackets after ≈: the same amount, converted by molar mass.

Chain of recombinant E. coli FtsZ (P0A9A6 whole entry, looked up): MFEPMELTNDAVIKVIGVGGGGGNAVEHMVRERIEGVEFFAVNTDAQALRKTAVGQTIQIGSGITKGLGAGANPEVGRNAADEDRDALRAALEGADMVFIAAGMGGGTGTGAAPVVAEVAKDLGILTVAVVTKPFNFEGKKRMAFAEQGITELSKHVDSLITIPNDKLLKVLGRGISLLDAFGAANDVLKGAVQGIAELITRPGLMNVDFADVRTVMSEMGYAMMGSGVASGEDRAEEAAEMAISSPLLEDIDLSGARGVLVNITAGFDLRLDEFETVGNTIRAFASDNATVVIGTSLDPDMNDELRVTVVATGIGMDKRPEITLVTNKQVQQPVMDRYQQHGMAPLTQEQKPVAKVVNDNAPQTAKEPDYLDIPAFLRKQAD
Protocol for Sa-FtsZ: (§3) Solutions were incubated at room temperature for 5 min, followed by addition of 0.25 mM GTP. At the end of a 20-min incubation period, enzyme activity was quenched by addition of 50 μL Malachite Green solution and the wells read at A^625 on an absorbance plate reader.
Protocol for recombinant E. coli FtsZ: as §3

In general, IC50 refers to the concentration that inhibits the measured activity by half. What is called MIC50 is an inhibitory concentration at the 50% level, which refers to growth in some studies and to a panel of isolates in others. In the case of `COc1cc(C/C=C(/Cl)Cc2cc(O)cc(O)c2)c(OC)cc1Cl` [Compound J23, (E)-5-(2-chloro-4-(4-chloro-2,5-dimethoxyphenyl)but-2-enyl)benzene-1,3-diol], the IC50 came out at 36 ± 7 µM on recombinant E. coli FtsZ and 44 ± 12 µM at Sa-FtsZ. Also, the MIC50 in assay [1] was 19 µM (≈ 7.02 µg/mL); in assay [2], 120 µM (≈ 44.3 µg/mL); in assay [3] it was 12 µM (≈ 4.43 µg/mL); in [4], more than 270 µM; in [5] it was 6 µM (≈ 2.22 µg/mL); in [6], 12 µM (≈ 4.43 µg/mL). Moreover, the MIC50 came to 12 µM (≈ 4.43 µg/mL) in [7] and 7.4 µM (≈ 2.73 µg/mL) in assay [8].

On to `Oc1cc(O)cc(C/C(Cl)=C\Cc2cc(O)c(Cl)cc2O)c1` [Compound J24, (E)-5-(2-chloro-4-(4-chloro-2,5-dihydroxyphenyl)but-2-enyl)-benzene-1,3-diol], for which the IC50 on recombinant E. coli FtsZ amounted to 160 ± 30 µM; at Sa-FtsZ, 88 ± 11 µM. Further, the MIC50 in assay [1] is 11 µM (≈ 3.75 µg/mL); in assay [2], 72 µM (≈ 24.6 µg/mL); in [3], 18 µM (≈ 6.14 µg/mL); in assay [4] it was more than 290 µM; in assay [6], 26 µM (≈ 8.87 µg/mL); in [7], 22 µM (≈ 7.51 µg/mL).
